Patent US20240308960A1 (Sumitomo Pharma Co., Ltd., priority 2021, published 2024)

Biological target: T1, Human orexin receptor type 2 (Homo sapiens, UniProt O43614)
T1 sequence (O43614 1-444): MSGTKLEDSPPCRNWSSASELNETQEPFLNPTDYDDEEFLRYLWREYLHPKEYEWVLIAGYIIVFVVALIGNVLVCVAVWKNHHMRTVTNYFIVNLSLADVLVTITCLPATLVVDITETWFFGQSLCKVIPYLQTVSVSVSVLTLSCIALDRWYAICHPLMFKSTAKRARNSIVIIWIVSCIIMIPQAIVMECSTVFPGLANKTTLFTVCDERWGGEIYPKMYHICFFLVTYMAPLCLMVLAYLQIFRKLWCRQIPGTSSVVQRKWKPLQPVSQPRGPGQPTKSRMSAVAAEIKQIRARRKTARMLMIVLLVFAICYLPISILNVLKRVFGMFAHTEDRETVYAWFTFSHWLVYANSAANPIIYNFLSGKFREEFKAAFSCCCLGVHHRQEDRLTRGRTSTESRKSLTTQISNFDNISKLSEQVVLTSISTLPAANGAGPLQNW
Assay: Test Example 1: agonist activity for orexin receptor type 2 (aequorin luminescence, intracellular calcium mobilization)
Details: compound 10 μm; CHO cells transiently expressing human orexin receptor type 2 and apoaequorin; relative percentage of luminescence for the luminescence (100%) of Orexin A (100 μM)
Experimental: Human orexin receptor type 2 and apoaequorin were transiently expressed in CHO cells, and the agonist activity was evaluated based on intracellular calcium mobilization with ligand stimulation. The CHO cells transiently-expressed human orexin receptor type 2 and apoaequorin were seeded on a 384-well plate by 2,000 cells/well, and then incubated for 16-22 hours. After the plate was returned to room temperature, Coelenterazine hcp (final concentration: 1 μM) was added to the plate, and the plate was allowed to stand at room temperature for 2 hours. And then, Orexin A or each test compound was added to the plate, and the luminescence of the cells was measured with FDSS7000 (Hamamatsu Photonics K. K.), wherein Orexin A and each test compound were dissolved in DMSO (final concentration: 0.1%), and diluted with a buffer (Hanks, 20 mM HEPES, 0.1% BSA). The agonist activity of each test compound for orexin receptor type 2 was calculated as relative percentage of luminescence for the luminescence (100%) of Orexin A (100 μM).

Compound | Agonist Activity (%)
CC(C)c1noc(C2(C)CCN(C(=O)Nc3ccccc3N3CCN(C(C)C)CC3)CC2)n1.Cl [Example 163, 4-methyl-4-[3-(propan-2-yl)-1,2,4-oxadiazol-5-yl]-N-{2-[4-(propan-2-yl)piperazin-1-yl]phenyl}piperidine-1-carboxamide hydrochloride] | 110%
COc1cccc(CN2CCN(C(C)C)CC2)c1NC(=O)N1CCC(c2ccc(C)cc2)CC1 [Example 63, N-(2-methoxy-6-{[4-(propan-2-yl)piperazin-1-yl]methyl}phenyl)-4-(4-methylphenyl)piperidine-1-carboxamide] | 26%
COc1cccc(C2=CCN(C(C)C)CC2)c1NC(=O)N1CCC(c2ccc(C)cc2)CC1 [Example 47, N-{2-methoxy-6-[1-(propan-2-yl)-1,2,3,6-tetrahydropyridin-4-yl]phenyl}-4-(4-methylphenyl)piperidine-1-carboxamide] | 165%
CC(C)N1CCC(c2cccc(F)c2NC(=O)N2CCC(C)(c3nc4ccccc4o3)CC2)CC1 [Example 49, 4-(1,3-benzoxazol-2-yl)-N-{2-fluoro-6-[1-(propan-2-yl)piperidin-4-yl]phenyl}-4-methylpiperidine-1-carboxamide] | 196%
Cc1ccc(C2(C)CCN(C(=O)Nc3c(Cl)cccc3N3CCN(C(C)C)CC3)CC2)cc1 [Example 77, N-{2-chloro-6-[4-(propan-2-yl)piperazin-1-yl]phenyl}-4-methyl-4-(4-methylphenyl)piperidine-1-carboxamide] | 158%
CC(C)N1CCC(c2cccc(Cl)c2NC(=O)N2CCC(C)(c3noc(C4CC4)n3)CC2)CC1 [Example 145, N-{2-chloro-6-[1-(propan-2-yl)piperidin-4-yl]phenyl}-4-(5-cyclopropyl-1,2,4-oxadiazol-3-yl)-4-methylpiperidine-1-carboxamide] | 148%
Cc1ccc(C2CCN(C(=O)Nc3c(Cl)cccc3N3CCN(C(C)C)CC3)CC2)cc1 [Example 35, N-{2-chloro-6-[4-(propan-2-yl)piperazin-1-yl]phenyl}-4-(4-methylphenyl)piperidine-1-carboxamide] | 163%
Cc1ccc(C2CCN(C(=O)Nc3ccccc3N3CCN(C(C)C)CC3)CC2)cc1 [Example 121] | 130%
CCc1nc(C2(C)CCN(C(=O)Nc3c(F)cccc3N3CCN(C(C)C)CC3)CC2)no1 [Example 82, 4-(5-ethyl-1,2,4-oxadiazol-3-yl)-N-{2-fluoro-6-[4-(propan-2-yl)piperazin-1-yl]phenyl}-4-methylpiperidine-1-carboxamide] | 156%
Cc1ccc(C2CCN(C(=O)Nc3c(OC(C)C)cccc3C3CCN(C(C)C)CC3)CC2)cc1 [Example 129, 4-(4-methylphenyl)-N-{2-[(propan-2-yl)oxy]-6-[1-(propan-2-yl)piperidin-4-yl]phenyl}piperidine-1-carboxamide] | 138%
CCN1CCN(c2ccccc2NC(=O)N2CCC(c3nc4ccccc4o3)CC2)CC1 [Example 2, 4-(1,3-benzoxazol-2-yl)-N-[2-(4-ethylpiperazin-1-yl)phenyl]piperidine-1-carboxamide] | 35%
CC(C)N1CCC(c2cccc(F)c2NC(=O)N2CCC(c3cc(C4CC4)on3)CC2)CC1 [Example 51, 4-(5-cyclopropyl-1,2-oxazol-3-yl)-N-{2-fluoro-6-[1-(propan-2-yl)piperidin-4-yl]phenyl}piperidine-1-carboxamide] | 151%
CC(C)N1CCN(c2cccc(Cl)c2NC(=O)N2CCC(C)(c3nnc(C4CC4)s3)CC2)CC1 [Example 102, N-{2-chloro-6-[4-(propan-2-yl)piperazin-1-yl]phenyl}-4-(5-cyclopropyl-1,3,4-thiadiazol-2-yl)-4-methylpiperidine-1-carboxamide] | 160%
CC(C)N1CCC(c2cccc(F)c2NC(=O)N2CCC(C)(c3cc(C4CC4)on3)CC2)CC1 [Example 53, 4-(5-cyclopropyl-1,2-oxazol-3-yl)-N-{2-fluoro-6-[1-(propan-2-yl)piperidin-4-yl]phenyl}-4-methylpiperidine-1-carboxamide] | 140%
CC(C)N1CCN(c2cccc(Cl)c2NC(=O)N2CCC(C)(c3noc(C4CC(F)(F)C4)n3)CC2)CC1 [Example 76, N-{2-chloro-6-[4-(propan-2-yl)piperazin-1-yl]phenyl}-4-[5-(3,3-difluorocyclobutyl)-1,2,4-oxadiazol-3-yl]-4-methylpiperidine-1-carboxamide] | 148%
Cc1cccc(C2CCN(C(=O)Nc3c(F)cccc3N3CCN(C(C)C)CC3)CC2)c1 [Example 29, N-{2-fluoro-6-[4-(propan-2-yl)piperazin-1-yl]phenyl}-4-(3-methylphenyl)piperidine-1-carboxamide] | 77%
CC(C)N1CC=C(c2cccc(F)c2NC(=O)N2CCC(C)(c3cc(C4CC4)on3)CC2)CC1 [Example 55, 4-(5-cyclopropyl-1,2-oxazol-3-yl)-N-{2-fluoro-6-[1-(propan-2-yl)-1,2,3,6-tetrahydropyridin-4-yl]phenyl}-4-methylpiperidine-1-carboxamide] | 154%
COc1cccc(N2CCN(C(C)C)CC2)c1NC(=O)N1CCC(C)(c2noc(C)n2)CC1 [Example 23, N-{2-methoxy-6-[4-(propan-2-yl)piperazin-1-yl]phenyl}-4-methyl-4-(5-methyl-1,2,4-oxadiazol-3-yl)piperidine-1-carboxamide] | 92%
Cc1ccc(C2CCN(C(=O)Nc3c(F)cccc3C3=CCN(C(CF)CF)CC3)CC2)cc1 [Example 136, N-{2-[1-(1,3-difluoropropan-2-yl)-1,2,3,6-tetrahydropyridin-4-yl]-6-fluorophenyl}-4-(4-methylphenyl)piperidine-1-carboxamide] | 105%
CC(C)N1CCN(c2ccccc2NC(=O)N2CCC(C)(c3nc(-c4cccnc4)no3)CC2)CC1 [Example 13, 4-methyl-N-{2-[4-(propan-2-yl)piperazin-1-yl]phenyl}-4-[3-(pyridin-3-yl)-1,2,4-oxadiazol-5-yl]piperidine-1-carboxamide] | 99%
CC(C)N1CCN(c2cccc(Cl)c2NC(=O)N2CCC(C)(c3noc(C4(C(F)(F)F)CC4)n3)CC2)CC1 [Example 107, N-{2-chloro-6-[4-(propan-2-yl)piperazin-1-yl]phenyl}-4-methyl-4-{5-[1-(trifluoromethyl)cyclopropyl]-1,2,4-oxadiazol-3-yl}piperidine-1-carboxamide] | 163%
COCCN1CCN(c2ccccc2NC(=O)N2CCC(c3ccc(C)cc3)CC2)CC1 [Example 125, N-{2-[4-(2-methoxyethyl)piperazin-1-yl]phenyl}-4-(4-methylphenyl)piperidine-1-carboxamide] | 141%
COC1(c2nc(C3(C)CCN(C(=O)Nc4c(Cl)cccc4N4CCN(C(C)C)CC4)CC3)no2)CC1 [Example 108, N-{2-chloro-6-[4-(propan-2-yl)piperazin-1-yl]phenyl}-4-[5-(1-methoxycyclopropyl)-1,2,4-oxadiazol-3-yl]-4-methylpiperidine-1-carboxamide] | 157%
CC(C)N1CCN(c2cccc(Cl)c2NC(=O)N2CCC(C)(c3nc4ccccc4o3)CC2)CC1 [Example 66, 4-(1,3-benzoxazol-2-yl)-N-{2-chloro-6-[4-(propan-2-yl)piperazin-1-yl]phenyl}-4-methylpiperidine-1-carboxamide] | 129%
Cc1ccc(C2CCN(C(=S)Nc3c(F)cccc3N3CCN(C(C)C)CC3)CC2)cc1 [Example 64, N-{2-fluoro-6-[4-(propan-2-yl)piperazin-1-yl]phenyl}-4-(4-methylphenyl)piperidine-1-carbothioamide] | 140%
Cc1ccc(C2CCN(C(=O)Nc3c(F)cccc3N3C[C@@H]4C[C@H]3CN4C(C)C)CC2)cc1 [Example 150, N-{2-fluoro-6-[(1S,4S)-5-(propan-2-yl)-2,5-diazabicyclo[2.2.1]heptan-2-yl]phenyl}-4-(4-methylphenyl)piperidine-1-carboxamide] | 116%
CC(C)N1CCN(c2cccc(F)c2NC(=S)N2CCC(C)(c3noc(C4CC4)n3)CC2)CC1 [Example 57, 4-(5-cyclopropyl-1,2,4-oxadiazol-3-yl)-N-{2-fluoro-6-[4-(propan-2-yl)piperazin-1-yl]phenyl}-4-methylpiperidine-1-carbothioamide] | 171%
CC(C)N1CCN(c2cccc(F)c2NC(=O)N2CCC(C)(c3noc(C(F)(F)F)n3)CC2)CC1 [Example 24, N-{2-fluoro-6-[4-(propan-2-yl)piperazin-1-yl]phenyl}-4-methyl-4-[5-(trifluoromethyl)-1,2,4-oxadiazol-3-yl]piperidine-1-carboxamide] | 127%
CC(C)N1CCN(c2cccc(Br)c2NC(=O)N2CCC(C)(c3noc(C4CC4)n3)CC2)CC1 [Example 88, N-{2-bromo-6-[4-(propan-2-yl)piperazin-1-yl]phenyl}-4-(5-cyclopropyl-1,2,4-oxadiazol-3-yl)-4-methylpiperidine-1-carboxamide] | 161%
CC(C)N1CCC(c2cccc(F)c2NC(=O)N2CCC(C)(c3noc(C4CC4)n3)CC2)CC1 [Example 43, 4-(5-cyclopropyl-1,2,4-oxadiazol-3-yl)-N-{2-fluoro-6-[1-(propan-2-yl)piperidin-4-yl]phenyl}-4-methylpiperidine-1-carboxamide] | 135%
